Earlier results, collected in US6440942B1, “14-membered macrolides derived from leucomycins” (Enanta Pharmaceuticals, Inc., priority 2000, dated 2002).
Where two headings read alike, the source gives them in different places.

Columns and labels:
[1] = for in vitro potency relative to the parent compound: main metabolites of rokitamycin, parent compound = rokitamycin; for antimicrobial activity: josamycin metabolites isolated from urine and plasma of adults given oral josamycin
[2] = monkeys; compared with other 4″-O-butyryl derivatives
[3] = dogs; compared with other 4″-O-butyryl derivatives

4″-debutyryl leucomycin A5 [leucomycin V]
in vitro potency relative to the parent compound [1]: one-tenth

5-hydroxyjosamycin
antimicrobial activity [1]: poor

CCC(=O)O[C@H]1[C@H](C)O[C@@H](O[C@H]2[C@H](N(C)C)[C@@H](O)[C@H](O[C@H]3[C@@H](CC=O)C[C@@H](C)[C@@H](O)/C=C/C=C/C[C@@H](C)OC(=O)C[C@@H](O)[C@@H]3OC)O[C@@H]2C)C[C@@]1(C)O [Leucomycin A7]
in vitro potency relative to the parent compound [1]: one-half

COC1C(O)CC(=O)OC(C)CC=CC=CC(=O)C(C)CC(CC=O)C1OC1OC(C)C(OC2CC(C)(O)C(OC(=O)CC(C)C)C(C)O2)C(N(C)C)C1O (stereo not drawn) [Niddamycin]
antibacterial activity in vitro (Gram-positive bacteria): good | antibacterial activity in vitro (Mycoplasma spp.): good

COC1C(OC(C)=O)CC(=O)OC(C)CC=CC=CC(O)C(C)CC(CC=O)C1OC1OC(C)C(OC2CC(C)(O)C(O)C(C)O2)C(N(C)C)C1O (stereo not drawn) [desisovaleryl josamycin]
antimicrobial activity [1]: inactive

CCCC(=O)O[C@H]1[C@H](C)O[C@@H](O[C@H]2[C@H](N(C)C)[C@@H](O)[C@H](O[C@H]3[C@@H](CC=O)C[C@@H](C)[C@@H](O)/C=C/C=C/C[C@@H](C)OC(=O)C[C@@H](O)[C@@H]3OC)O[C@@H]2C)C[C@@]1(C)OC(=O)CC [rokitamycin, 3″-O-propionyl leucomycin A5]
serum levels [2]: highest | in vitro activity against Gram-negative bacteria relative to leucomycin A5, josamycin and midecamycin (Gram-negative bacteria): twice as high | serum levels [3]: highest | activity among 4″-O-butyryl derivatives ([1]; compared with other 3″-O-acyl leucomycin A5 derivatives): most active

demycarosyl josamycin
antimicrobial activity [1]: inactive

β-hydroxyisovaleryl josamycin
antimicrobial activity [1]: poor
